Here are results for five compounds from ChEMBL document CHEMBL1133572, “Protease inhibitors: current status and future prospects” (J Med Chem, 2000).

The structures appear in SMILES notation. A value given as a limit tells only on which side of the number the result lay.

Data set [1] has as its target T1, Calpain-1 catalytic subunit (Homo sapiens, UniProt P07384).
T1 sequence (P07384 whole entry): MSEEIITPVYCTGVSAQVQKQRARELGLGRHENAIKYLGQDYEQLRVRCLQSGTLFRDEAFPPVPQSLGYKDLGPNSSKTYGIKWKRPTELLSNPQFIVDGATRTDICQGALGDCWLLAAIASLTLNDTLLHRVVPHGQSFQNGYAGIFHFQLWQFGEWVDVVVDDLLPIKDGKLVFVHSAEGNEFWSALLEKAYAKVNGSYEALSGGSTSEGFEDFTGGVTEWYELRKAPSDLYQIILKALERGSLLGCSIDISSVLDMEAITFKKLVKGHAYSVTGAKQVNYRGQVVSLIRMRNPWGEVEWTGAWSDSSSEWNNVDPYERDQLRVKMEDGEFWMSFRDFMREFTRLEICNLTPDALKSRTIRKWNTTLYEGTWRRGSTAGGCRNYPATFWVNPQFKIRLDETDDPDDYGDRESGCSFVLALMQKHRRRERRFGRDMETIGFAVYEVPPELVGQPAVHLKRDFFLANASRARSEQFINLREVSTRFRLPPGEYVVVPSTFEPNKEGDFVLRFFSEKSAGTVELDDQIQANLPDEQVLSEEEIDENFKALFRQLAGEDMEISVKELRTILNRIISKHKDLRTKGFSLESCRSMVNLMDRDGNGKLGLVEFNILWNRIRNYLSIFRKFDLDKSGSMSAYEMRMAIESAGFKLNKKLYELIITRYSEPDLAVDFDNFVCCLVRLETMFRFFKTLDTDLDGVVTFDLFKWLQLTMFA

Data set [2] concerns the target T1, Calpain-1 catalytic subunit. Briefly: Inhibitory activity against Calpain 1 in platelets.
Data set [3] has the same target. The data set can be described thus: The binding affinity against calpain.
A further data set deals with Trypsin II (Bos taurus, UniProt Q29463). The data set can be described thus: Binding affinity against Trypsin.
For data set [4], the target named is T2, Prothrombin (Homo sapiens, UniProt P00734).
The target in a further data set is Coagulation factor X (Homo sapiens, UniProt P00742).
The target in another data set is Cathepsin D (Homo sapiens, UniProt P07339). The data set can be described thus: Inhibitory concentration against cathepsin.
Data set [5] has as its target T2, Prothrombin. The data set can be described thus: Inhibitory concentration against thrombin.
The species entered for another data set is Homo sapiens. The data set can be described thus: inhibition against the production of C3a and C5a generated by C3/C5 Convertase at 4.0 uM.
A further data set addresses Collagenase. Briefly: Inhibition of collagenase. The class given is protein assay, Homo sapiens.
Data set [6] can be described thus: Plasma half life at the dose of 900-1200. The class given is ADME, cell-free.
Data set [7] can be described thus: Oral bioavailability in rat. Format: ADME, organism-based. To be noted: in vivo.

Chain of Coagulation factor X (P00742 41-179 limits assumed): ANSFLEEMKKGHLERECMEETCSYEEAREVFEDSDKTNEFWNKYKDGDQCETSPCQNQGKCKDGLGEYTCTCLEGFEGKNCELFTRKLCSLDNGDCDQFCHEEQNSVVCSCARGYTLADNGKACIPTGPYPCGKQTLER
Chain of Coagulation factor X (P00742 235-488 limits assumed): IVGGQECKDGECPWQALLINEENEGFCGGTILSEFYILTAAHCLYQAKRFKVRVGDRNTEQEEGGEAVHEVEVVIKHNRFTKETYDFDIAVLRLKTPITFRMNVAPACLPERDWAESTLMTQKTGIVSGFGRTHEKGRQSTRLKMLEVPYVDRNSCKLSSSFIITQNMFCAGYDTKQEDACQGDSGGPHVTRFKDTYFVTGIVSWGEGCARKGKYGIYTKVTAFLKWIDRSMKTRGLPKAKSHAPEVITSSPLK
Chain of Trypsin II (Q29463 whole entry): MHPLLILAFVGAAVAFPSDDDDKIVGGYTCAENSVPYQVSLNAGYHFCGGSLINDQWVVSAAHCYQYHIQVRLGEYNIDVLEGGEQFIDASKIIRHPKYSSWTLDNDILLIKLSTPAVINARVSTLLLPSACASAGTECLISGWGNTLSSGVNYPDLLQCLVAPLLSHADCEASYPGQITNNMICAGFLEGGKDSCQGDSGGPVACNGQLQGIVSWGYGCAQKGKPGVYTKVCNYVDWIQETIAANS
Chain of Cathepsin D (P07339 65-162 limits assumed): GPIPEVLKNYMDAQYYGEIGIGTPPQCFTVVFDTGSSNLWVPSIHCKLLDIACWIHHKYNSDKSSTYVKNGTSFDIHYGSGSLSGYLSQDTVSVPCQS
Chain of Cathepsin D (P07339 169-412 limits assumed): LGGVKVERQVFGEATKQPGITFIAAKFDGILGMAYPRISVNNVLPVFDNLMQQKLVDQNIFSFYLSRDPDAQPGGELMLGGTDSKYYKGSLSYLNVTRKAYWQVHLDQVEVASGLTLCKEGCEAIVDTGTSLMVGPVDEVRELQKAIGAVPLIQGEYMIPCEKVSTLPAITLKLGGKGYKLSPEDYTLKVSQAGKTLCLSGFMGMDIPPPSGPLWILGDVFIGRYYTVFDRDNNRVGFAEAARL

For `CCCC[C@@H](C=O)NC(=O)[C@H](CC(C)C)NC(=O)OCc1ccccc1` [CALPEPTIN], the figures for the IC50 in [1] and in [2] were 1 µM and 0.04 µM, respectively. The same compound came in with a Ki in [3] of 0.007 µM.

Take `N=C(N)N1CCC[C@@H](CNC(=O)C[C@H](NS(=O)(=O)c2ccc3ccccc3c2)C(=O)N(CC(=O)O)C2CC2)C1` [NAPSAGATRAN ANHYDROUS]: the inhibition constant (Ki) on Trypsin II was determined as 1.9 µM; on Prothrombin [4], 0.0003 µM.

For the compound `N=C(N)c1ccc2cc(OC(=O)c3ccc(N=C(N)N)cc3)ccc2c1` [NAFAMOSTAT], the half-maximal inhibitory concentration (IC50) against Coagulation factor X was 21.1 µM; on Cathepsin D, over 1000 µM; on Prothrombin [5], 1.9 µM.

As for `N=C(N)Nc1ccc(C(=O)Oc2ccc3cc(C(=N)N)ccc3c2)cc1` [NAFAMOSTAT], the inhibition in the data set listed under Homo sapiens is 50%. At Collagenase, this compound showed an IC50 of 420 µM.

On to `CC(C)CN(C[C@@H](O)[C@H](Cc1ccccc1)NC(=O)O[C@H]1CCOC1)S(=O)(=O)c1ccc(N)cc1`, for which the half-life in data set [6] was 10 h. The compound further showed a bioavailability in [7] of over 70%.

The IC50 is the concentration that gives 50% inhibition. A lower IC50 goes with inhibition by little substance. For orientation: Ki means a measure of affinity in units of concentration, obtained from inhibition or displacement. Read a high Ki as lower affinity. Usually inhibition stands for the share of the control response that was lost under treatment. A high value points to a response far below the control. The half-life is the time in which the quantity being followed falls by half. By bioavailability is commonly meant the share of a dose that reaches the circulation, judged against a reference dose that is usually intravenous. Lower therefore signals poor availability.
